Laboratory results as given in ChEMBL document CHEMBL4616645, “Dysidealactams and Dysidealactones: Sesquiterpene Glycinyl-Lactams, Imides, and Lactones from a Dysidea sp. Marine Sponge Collected in Southern Australia” (J Nat Prod, 2020).
The source made the active and inactive calls.

Experiments:
[1] = test system: Bacillus subtilis; test: Antibacterial activity against Bacillus subtilis ATCC 6051 assessed as reduction In microbial growth up to 30 uM after 24 hrs by spectrophotometric method; format: functional, organism-based
[2] = test system: SW-620; test: Cytotoxicity against human SW620 cells assessed as reduction in cell viability up to 30 uM after 48 hrs by MTT assay; format: functional, cell-based
[3] = test system: Escherichia coli; test: Antibacterial activity against Escherichia coli ATCC 11775 assessed as reduction In microbial growth up to 30 uM after 24 hrs by spectrophotometric method; format: functional, organism-based
[4] = test system: NCI-H460; test: Cytotoxicity against human NCI-H460 cells assessed as reduction in cell viability up to 30 uM uM after 48 hrs by MTT assay; format: functional, cell-based
[5] = test system: Candida albicans; test: Antifungal activity against Candida albicans ATCC 10231 assessed as reduction In microbial growth up to 30 uM after 24 hrs by spectrophotometric method; format: functional, organism-based

Measured: Activity

CC1(C)CCC[C@]2(C)C3=C(CC[C@@H]12)C(=O)NC3=O
inactive: all assays above

CCO[C@H]1C2=C(CC[C@H]3C(C)(C)CCC[C@]23C)C(=O)N1CC(=O)O
inactive: all assays above

CC1(C)CCC[C@]2(C)C3=C(CC[C@@H]12)CN(CC(=O)O)C3=O
inactive: all assays above

CC1(C)CCC[C@]2(C)C3=C(CC[C@@H]12)C(O)OC3=O (stereo not given in full)
inactive: all assays above

CCO[C@@H]1C2=C(CC[C@H]3C(C)(C)CCC[C@]23C)C(=O)N1CC(=O)O
inactive: all assays above

CC1(C)CCC[C@]2(C)C3=C(CC[C@@H]12)C(=O)N(CC(=O)O)C3
inactive: all assays above

CC1(C)CCC[C@]2(C)C3=C(CC[C@@H]12)C(=O)N(CC(=O)O)[C@H]3O
inactive: all assays above

CC1(C)CCC[C@]2(C)C3=C(CC[C@@H]12)C(=O)OC3O (stereo not given in full)
inactive: all assays above

CC1(C)CCC[C@]2(C)C3=C(CC[C@@H]12)C(=O)N(CC(=O)O)[C@@H]3O
inactive: all assays above

CC1(C)CCC[C@]2(C)C3=C(CC[C@@H]12)C(=O)N(CC(=O)O)C3=O
inactive: all assays above
